Columns and labels:
[1] = tested on: fresh plasma taken from Wister rat; assay: Anti-blood coagulation activity by activated partial thromboplastin time (APTT); type: biochemical; conditions: 9 μg/mL or 3 μg/mL
From the text: Anti-blood coagulation activity of the sugar chain compound such as oligosaccharide or a salt thereof used in the agent of the present invention for promoting HGF production can be assessed by measuring an activated partial thromboplastin time (APTT) or anti-factor Xa activity according to the known methods that have been used for measuring anti-blood coagulation activity of low-molecular-weight heparin.
Regarding the heparin fragments (oligosaccharides) obtained in Example 1, anti-blood coagulation activity and LPL releasing activity were measured. Anti-blood coagulation activity was assessed by comparing an activated partial thromboplastin time (APTT). APTT was measured using fresh plasma taken from Wister rat (male) and Data φ·APTT kit (Sysmex) which utilizes activation by ellagic acid. The heparin fragments were added to rat plasma at a concentration of 9 μg/mL or 3 μg/mL, and APTT values (second) were compared.

lipoprotein lipase (LPL) = assay: LPL releasing activity (LPL amount in plasma by ELISA after tail vein administration); type: in vivo, Wister rat; conditions: rat, after 10 minutes
From the text: LPL releasing activity of the sugar chain compound such as oligosaccharide used in the agent of the present invention for promoting HGF production or a salt thereof can be assessed by administering the sugar chain compound or a salt thereof to a mouse or a rat, taking the plasma after a certain time, and measuring the amount of LPL in the plasma. The amount of LPL in the plasma can be determined by measuring LPL activity, or measuring the mass of LPL protein by ELISA.
For measuring LPL releasing activity, heparin fragments were administered to Wister rat (3-week old male) via the tail vein at 0.3 μg per 1 g of body weight and, after 10 minutes, blood was taken from axillary fossa venous plexus, and a LPL amount in the resulting plasma was measured by ELISA (Daiichi Pure Chemicals Co., Ltd). In high-molecular weight heparin, about 250 ng/mL LPL was released, but in low-molecular weight heparin (Fragmin, Kissei Pharmaceutical Co., Ltd.), released LPL amount was reduced to about 30% of the amount in the case of high-molecular weight heparin. […] In particular, in oligosaccharides not larger than octasaccharide, reduction in released LPL amount was remarkable.

[2] = tested on: MRC-9 cells, human fetal lung fibroblasts; assay: Activity to promote HGF production in MRC-9 cells (HGF in culture medium by ELISA); type: cell-based; conditions: 0 to 50 μg/ml
Experimental: An activity to promote HGF production of the agent of the present invention can be measured by comparing the HGF concentration in the culture medium of HGF-producing cells when the sugar chain compounds such as oligosaccharides or a salt thereof are added with that when they are not added, wherein the concentration of HGF can be measured by ELISA. As an HGF-producing cell, MRC-5 and MRC-9 cells, human fetal lung fibroblasts, can be used.
Activities to promote HGF production of the heparin fragments (oligosaccharides) obtained in Example 1 were measured by using MRC-9 cells, human fetal lung fibroblasts. The cells were cultured with heparin fragments(oligosaccharides) and amounts of HGF produced by the cell were analyzed. First, MRC-9 cells were seeded onto a 48 well plate at a density of 5×10^4 cells/cm^2, and cultured in a DMEM medium containing 10% FCS for one day. After removing the medium, the cells were washed twice with 0.5 mL of PBS, and the medium was exchanged with a DMEM medium containing 1% FCS. Thereafter, the culture was continued. At this time, the heparin fragments obtained in Example 1 were added to the medium at a final concentration of 1 μg/ml. After 24 hours, the culture supernatant was recovered, and an amount of HGF secreted into the culture medium was measured by the ELISA method. […]

Structure (SMILES) | anti-blood coagulation activity / extension of APTT (in words) [1] | LPL releasing activity (in words) (lipoprotein lipase (LPL)) | activity to promote HGF production of disaccharide compounds (in words) [2]
NC1C(O)OC(CO)C(OC2OC(C(=O)O)=CC(O)C2OS(=O)(=O)O)C1O (stereo not drawn) [2-Sac-2S, ΔUA-2S-GlcN] | not detected | not detected | –
O=C(O)C1=C[C@H](O)[C@@H](O)[C@H](O[C@H]2[C@H](O)[C@@H](NS(=O)(=O)O)C(O)O[C@@H]2CO)O1 (some centres unmarked) [2-Sac-NS, ΔUA-GlcNS] | not detected | not detected | higher activity to promote HGF production than 2-Sac-2S
CC(=O)N[C@H]1C(O)O[C@H](COS(=O)(=O)O)[C@@H](O[C@@H]2OC(C(=O)O)=C[C@H](O)[C@H]2O)[C@@H]1O (some centres unmarked) [2-Sac-6S, ΔUA-GlcNAc-6S] | not detected | not detected | higher activity to promote HGF production than 2-Sac-2S
